Measured values: patent US20170183318A1, “AMIDE COMPOUNDS, METHODS FOR PREPARATION, AND USE THEREOF AS AGENTS FOR THE TREATMENT AND PREVENTION OF DISEASES CAUSED BY RNA- AND/OR DNA-CONTAINING VIRUSES, AND CONCOMITANT DISEASES” (OBSCHESTVO S OGRANICHENNOI OTVETSTVENNOSTIYU …, priority 2014, published 2017)

Experiments:
hRV = assay: Antiviral activity against rhinovirus in mice (infectious titer in lungs titrated in Hela cells; body and lung weight); assay type: in vivo; settings: 30 mg/kg orally once daily for 4 days from 12 h after infection; lung suspension titrated in Hela cells
Experimental: In this study, author's strain of hRV was used. The animals were infected with the virus intranasally under brief ether anesthesia in a volume of 0.05 ml/mouse.
To determine the efficiency of the compounds against hRV in the experimental model in vivo, the virus was previously titrated in mice, then the mice were infected, and the studied compounds were administered orally. The infectious titer was assessed on day 4 after infection by titration of a lung suspension in Hela cell culture. The infectious titer of the hRV virus in the lugs of the experimental group was determined in comparison with that in the control group by TCID.
The studied compounds and placebo (physiological solution) were orally administered to the mice once daily for 4 days, starting 12 hours after infection. The compounds were administered at a dose of 30 mg/kg of animal body weight. Intact animals served as a negative control and were kept under the same conditions as the experimental animals in a separate room.
The antiviral activity of the studied compounds was determined on day 4 after infection by a reduction of the virus infectious activity determined in Hela cell culture.

[1] = Rat model of nasopharyngitis induced by formalin (nasal mucosa changes, cell elements in nasal lavage); assay type: in vivo; settings: Wistar rats, 18 mg/kg for 3 days; for Mucous membrane of nasal passages: Without changes (number of animals): number of animals out of n = 10, control 0 of 20; for Mucous membrane of nasal passages: Discharge mucus from the nasal passages (number of animals): number of animals out of n = 10, control 20 of 20
Experimental: Nasopharyngitis was induced by intranasal administration of formalin to each nasal passage of rats.
The administration of formalin to the nasal passages of rats leads to the dissemination of inflammation to adjacent tissues, resulting in a clinical pattern similar to the symptoms of nasopharyngitis in a human.
After an acclimatization period, the following groups were formed: • intact animals administered intragastrically a physiological solution in an amount of 0.2 ml, without induction of nasopharyngitis; • a control group consisted of animals administered intragastrically a physiological solution in an amount of 0.2 ml for 3 days after induction of nasopharyngitis; and • animals administered the studied compounds at a dose of 18 mg/kg for 3 days after induction of nasopharyngitis.
Clinical observation of each animal was performed every day at least twice daily.
The caused pathology was characterized by hyperplasia, increased number of caliciform cells, pronounced infiltration of mononuclear cells and leucocytes, and mucus hyperproduction by submucosal glands.
After euthanasia, the inflammation pattern in the nasal passages and throat was studied in each group of animals. The nasal passages were washed with 5 mL of physiological solution and the score of cell elements were counted in 1 μL.

human adenovirus type 5 = assay: Model of experimental adenovirus infection (destructive processes in the liver, electron microscopy); assay type: in vivo; settings: newborn Syrian hamsters, 30 mg/kg orally 12, 36, 60 h after infection, liver 72 h after infection, virus control Intensive damages
Experimental: In the study, human adenovirus type 5 was used. In order to play adenovirus infection were used Newborn Syrian hamsters, in which the virus caused disseminated viral infection with damage to liver, lung and heart, were used to reproduce the viral infection. The animals were studied 48 hours after birth. Each group comprised 5 hamsters. The virus was inoculated subcutaneously in a volume of 0.1 mL, at a dose of 10^5 TCID50. The treatment was carried out orally with the compounds of general formula I at a dose of 30 mg/kg of body weight 12, 36, and 60 hours after infection. The animals of the placebo group were administered phosphate buffered saline. Intact animals served as control and were hold in a separate room under the same conditions as the experimental animals. 72 hours after infection, the animals of each group were euthanized, dissected, and the liver was isolated. The therapeutic effect was evaluated by the action on ultrastructural features of the morphogenesis of adenovirus infection in the liver by electron microscopy.

[2] = test system: human respiratory syncytial virus (strain A2); assay: Antiviral activity against RS virus in a murine model of suppressed immune system (lung edema); assay type: in vivo; settings: Balb/c mice, cyclophosphan-suppressed, RS-virus pneumonia; 30 mg/kg once daily for 5 days; M ± SD, n = 5; scores from possible 4
Experimental: Antiviral activity of the chemical compounds against human respiratory syncytial virus (strain A2, an infectious titer of 5×10^6 TCID50/mL) was assessed in a Balb/c murine model of viral pneumonia. The virus was inoculated to animals intranasally in a volume of 50 μL under brief ether anesthesia. The immune response in animals to RS virus was suppressed by intraperitoneal administration of cyclophosphan at a dose of 100 mg/kg 5 days before infection. The studied compounds were administered according to the treatment regimen once daily at a dose of 30 mg/kg for 5 days, starting 24 hours after infection. The activity of the compounds was determined by a reduction in edema of the lung infected with respiratory syncytial virus, compared to the control, on day 5 after infection.

[3] = test system: herpes simplex virus belonging to antigenic type 2; assay: Murine model of experimental herpetic meningoencephalitis (mortality); assay type: in vivo, white outbred mice; settings: Mus musculus, po, 336 h
Experimental: In the study, herpes simplex virus belonging to antigenic type 2 was used. White outbred mice weighing 7-8 g were infected i/c (intracerebrally) in a volume of 0.05 ml/mouse comprising a dose of 10LD50. The infectious dose of the virus that caused 100% mortality in mice was 10LD50. Each experimental group comprised 20 mice. Intact animals served as control and were hold in a separate room under the same conditions as the experimental animals. The antiviral activity of the compounds of general formula I was studied by oral administration of the compounds to infected mice once daily at a dose of 30 mg/kg/mouse 24, 48, 72, 96, and 120 hours after infection of the animals with the virus. The mice of the control group were administered placebo (0.2 mL of physiological solution) under the same conditions. The animals were monitored for 14 days after infection by registration the mouse death in the groups.
(§1) Each animal was subjected to once-daily observation. The observation included the assessment of general behavior and body condition of animals. The animals were handled according to the International Standards.
(§2) The activity of the compounds was evaluated by comparing mortality rates in the groups of animals administered a preparation and placebo.

[4] = test system: Sendai strain of parainfluenza virus; assay: Antiviral activity against parainfluenza virus in mice (mortality); assay type: in vivo, white outbred mice; settings: Mus musculus, po, 336 h, 10LD50 intranasally, 30 mg/kg orally once daily 24-120 h after infection, 14 days observation, 20 mice per group, virus control 75.0
Experimental: In the study the Sendai strain of parainfluenza virus was used. White outbred mice weighing 10-12 g were infected intranasally with the Sendai strain of parainfluenza virus adapted to mouse lungs under brief ether anesthesia in a volume of 0.05 ml/mouse. The infectious dose of the virus that caused 70-80% mortality in mice was 10LD50. Each group used in the experiment comprised 20 animals. Intact animals served as control and were hold in a separate room under the same conditions as the experimental animals. The antiviral activity of the compounds of general formula I was studied by oral administration of the compounds to infected mice once daily at a dose of 30 mg/kg/mouse 24, 48, 72, 96, and 120 hours after infection of the animals with the virus. The mice of the control group were administered placebo (0.2 mL of physiological solution) under the same conditions. The animals were monitored for 14 days after infection by registration the mouse death in the groups.
as §1, with “animals. In days of administration of preparations, the observation was conducted before administration of a preparation in a certain time and about two hours after administration.” for “animals.”
as §2

Row | SMILES | Infectious titer of the virus in lungs lg TCID50 (4 days after infection) (hRV) [lg TCID50] | Mucous membrane of nasal passages: Without changes (number of animals) [1] | Mucous membrane of nasal passages: Discharge mucus from the nasal passages (number of animals) [1] | Evaluation of damage (intensity of destructive processes in the liver) (human adenovirus type 5) | Degree of lung edema on day 5 after infection, score [2] [score] | mortality at 30 mg/kg [3] [%] | mortality at 30 mg/kg [4] [%]
1 | O=C(O)CCCC(=O)NCCC1CCCN1 (stereo not drawn) [Compound 2] | 0.1 ± 0.05 | 3 | 7 | Mild damage | 1.95 ± 0.32 | 55 | 35
2 | O=C(O)CCCC(=O)NCCC1CCCCN1 (stereo not drawn) [Compound 6] | 0.4 ± 0.15 | 4 | 6 | Mild damage | 0.90 ± 0.22 | 60 | 25
3 | O=C(O)CCCC(=O)NCCCc1cccs1 [Compound 34] | 0.5 ± 0.20 | 3 | 7 | Mild damage | 1.75 ± 0.4 | 70 | 15
4 | CC(Cc1cnc[nH]1)NC(=O)CCCC(=O)O (stereo not drawn) [Compound 115] | 0.05 ± 0.05 | 3 | 7 | Mild damage | 1.60 ± 0.5 | 65 | 30
5 | O=C(O)CCCC(=O)NCCCc1c[nH]cn1 [Compound 118] | 0 ± 0 | 5 | 5 | Mild damage | 1.85 ± 0.45 | 70 | 30
6 | CC(C)N(CCc1cnc[nH]1)C(=O)CCCC(=O)O [Compound 141] | 0 ± 0 | 4 | 6 | Mild damage | 0.55 ± 0.21 | 50 | 40
7 | Cc1csc(CCNC(=O)CCCC(=O)O)n1 [Compound 197] | 0.37 ± 0.06 | 6 | 4 | Mild damage | 1.15 ± 0.23 | 55 | 25
8 | O=C(O)CCCC(=O)NC(Cc1c[nH]cn1)C(=O)O (stereo not drawn) [Compound 251] | 0 ± 0 | 4 | 6 | Mild damage | 0.90 ± 0.21 | 65 | 35
9 | O=C(O)CCCC(=O)NCCc1nc2ccccc2s1 [Compound 275] | 0.45 ± 0.1 | 3 | 7 | Mild damage | 1.80 ± 0.20 | 60 | 40
